Earlier results in patent US20240197637A1, “POLYMERIC MICROPARTICLES FOR THE LOCAL TREATMENT OF CHRONIC INFLAMMATORY DISEASES” (FONDAZIONE ISTITUTO ITALIANO DI TECNOLOGIA, priority 2021, published 2024).

System: DMM murine model of injury-induced OA

Cc1ccc2c(c1)C1(CCN(CCc3nc(-c4ccccc4)oc3C)CC1)OC(=O)N2 [RS 504393]
pain perception (orally and daily administered): decreased
severity of structural damage (orally and daily administered, early OA stage): decreased the severity of structural damage
cartilage and bone damage (prolonged and delayed exposure): did not translate in a significant reduction
pain (prolonged and delayed exposure): alleviating pain
